Test system: T24 bladder cancer cell lines
Experiment: StaRT-PCR gene expression, SC23
Assay type: cell-based, human
Description: FIG. 21 illustrates RT-PCR gene expression analysis. Total RNA form T24 cells was isolated and cDNA was synthesized with 2.5 ug of total RNA. Standardized RT-PCR was performed with GENE system I gene expression kit (Gene Express Inc.). Each kit contains a mixture of the internal competitive templates and the corresponding primers.
Total RNA form T24 cells were isolated after 3h, Oh, 12h, 24h, and 48h exposure to SC23.
StaRT-PCR™ (Standardized Reverse Transcription Polymerase Chain Reaction). First described by Willey et al. ((2004) Methods Mol. Biol. 258:13-41), this technique uses standardized mixtures of competitive templates (CT) as internal standards in generating valid and reproducible numerical gene expression data for multiple genes. After the mRNA was converted to cDNA, the cDNA was mixed with a proprietary Standardized Mixture of Internal Standards™ (SMIS™, GeneExpress, Inc.). In the standard mixture, there is an internal standard CT for each gene to be measured as well as one for a reference gene. (i.e., β-actin, GAPDH). The amplicons produced by StaRT-PCR™ was then separated on capillary electrophoresis. The amount of internal standard CT or NT amplimer was determined by measuring each peak area. All data were then reported as number of molecules of mRNA for gene of interest per 10^6 molecules of reference gene (normalizer gene). Serial dilutions of the SMIS™ allow quantitative measurements over 7 log range of gene expression observed in cells from <10 to 10^7 molecules/10^6 molecules reference gene. Data presented in Table 8 are number of copies that have been normalized against 10^6 molecule of β-actin.

O=C(NNC(O)c1cc2ccccc2cc1O)c1cc2ccccc2cc1O (stereo not shown) [SC23]
E2F4 expression (12 hours): 1673.69 molecules/10^6 β-actin
E2F5 expression (12 hours): 486.8 molecules/10^6 β-actin
JUN expression (12 hours): 5419.7 molecules/10^6 β-actin
MAD expression (12 hours): 7122.48 molecules/10^6 β-actin
MAP3K14 expression (12 hours): 158.89 molecules/10^6 β-actin
MYC expression (12 hours): 5205.65 molecules/10^6 β-actin
NFKB1 expression (12 hours): 6131.17 molecules/10^6 β-actin
PCNA expression (12 hours): 5756.09 molecules/10^6 β-actin
PTGS2 expression (12 hours): 2138.52 molecules/10^6 β-actin
RB1 expression (12 hours): 3301.83 molecules/10^6 β-actin
RBL2 expression (12 hours): 2698.44 molecules/10^6 β-actin
TGFBR2 expression (12 hours): 6799.19 molecules/10^6 β-actin
TGIF expression (12 hours): 13858.11 molecules/10^6 β-actin
TNFAIP1 expression (12 hours): 22572.81 molecules/10^6 β-actin
TNFRSF1A expression (12 hours): 107.17 molecules/10^6 β-actin
TNFSF10 expression (12 hours): 288.01 molecules/10^6 β-actin
TP53 expression (12 hours): 1663.37 molecules/10^6 β-actin
TRAF4 expression (12 hours): 222.84 molecules/10^6 β-actin
BCL2L1 expression (24 hours): 30504.02 molecules/10^6 β-actin
BCL2 expression (24 hours): 35.99 molecules/10^6 β-actin
CASP1 expression (24 hours): 142.49 molecules/10^6 β-actin
CCNA2 expression (24 hours): 241.1 molecules/10^6 β-actin
CCND3 expression (24 hours): 404.3 molecules/10^6 β-actin
CCNE1 expression (24 hours): 47.28 molecules/10^6 β-actin
CCNG1 expression (24 hours): 17499.15 molecules/10^6 β-actin
CDC2 expression (24 hours): 2054.95 molecules/10^6 β-actin
CDC25C expression (24 hours): 326.46 molecules/10^6 β-actin
CDK7 expression (24 hours): 9983.36 molecules/10^6 β-actin
CDK8 expression (24 hours): 1706.26 molecules/10^6 β-actin
CDKN1A expression (24 hours): 225.4 molecules/10^6 β-actin
CDKN1B expression (24 hours): 2092.37 molecules/10^6 β-actin
CDKN2A expression (24 hours): 163.48 molecules/10^6 β-actin
CDKN2C expression (24 hours): 904.8 molecules/10^6 β-actin
CYP1A2 expression (24 hours): 36.62 molecules/10^6 β-actin
DAP expression (24 hours): 56353.65 molecules/10^6 β-actin
E2F4 expression (24 hours): 1582.79 molecules/10^6 β-actin
E2F5 expression (24 hours): 1178.84 molecules/10^6 β-actin
JUN expression (24 hours): 8677.27 molecules/10^6 β-actin
MAD expression (24 hours): 13204.24 molecules/10^6 β-actin
MAP3K14 expression (24 hours): 143.47 molecules/10^6 β-actin
MYC expression (24 hours): 11117.04 molecules/10^6 β-actin
NFKB1 expression (24 hours): 16919.99 molecules/10^6 β-actin
PCNA expression (24 hours): 12795.59 molecules/10^6 β-actin
PTGS2 expression (24 hours): 19413.37 molecules/10^6 β-actin
RB1 expression (24 hours): 5935.72 molecules/10^6 β-actin
RBL2 expression (24 hours): 8604.92 molecules/10^6 β-actin
TGFBR2 expression (24 hours): 15367.23 molecules/10^6 β-actin
TGIF expression (24 hours): 15445.36 molecules/10^6 β-actin
TNFAIP1 expression (24 hours): 39858.96 molecules/10^6 β-actin
TNFRSF1A expression (24 hours): 26.61 molecules/10^6 β-actin
TNFSF10 expression (24 hours): 151.09 molecules/10^6 β-actin
TP53 expression (24 hours): 4238.06 molecules/10^6 β-actin
TRAF4 expression (24 hours): 242.44 molecules/10^6 β-actin
BCL2L1 expression (48 hours): 21299.99 molecules/10^6 β-actin
BCL2 expression (48 hours): 22.29 molecules/10^6 β-actin
CASP1 expression (48 hours): 184.55 molecules/10^6 β-actin
CCNA2 expression (48 hours): 137.61 molecules/10^6 β-actin
CCND3 expression (48 hours): 641.75 molecules/10^6 β-actin
CCNE1 expression (48 hours): 146.61 molecules/10^6 β-actin
CCNG1 expression (48 hours): 25388.52 molecules/10^6 β-actin
CDC2 expression (48 hours): 497.44 molecules/10^6 β-actin
CDC25C expression (48 hours): 68.37 molecules/10^6 β-actin
CDK7 expression (48 hours): 19212.16 molecules/10^6 β-actin
CDK8 expression (48 hours): 3052.4 molecules/10^6 β-actin
CDKN1A expression (48 hours): 288.56 molecules/10^6 β-actin
CDKN1B expression (48 hours): 414.6 molecules/10^6 β-actin
CDKN2A expression (48 hours): 3382.09 molecules/10^6 β-actin
CDKN2C expression (48 hours): 650.26 molecules/10^6 β-actin
CYP1A2 expression (48 hours): 37.48 molecules/10^6 β-actin
DAP expression (48 hours): 70325.95 molecules/10^6 β-actin
E2F4 expression (48 hours): 3738.46 molecules/10^6 β-actin
E2F5 expression (48 hours): 2144.23 molecules/10^6 β-actin
JUN expression (48 hours): 9510.55 molecules/10^6 β-actin
MAD expression (48 hours): 12999.27 molecules/10^6 β-actin
MAP3K14 expression (48 hours): 720.55 molecules/10^6 β-actin
MYC expression (48 hours): 8944.84 molecules/10^6 β-actin
NFKB1 expression (48 hours): 26524.38 molecules/10^6 β-actin
PCNA expression (48 hours): 6913.72 molecules/10^6 β-actin
PTGS2 expression (48 hours): 26516.88 molecules/10^6 β-actin
RB1 expression (48 hours): 6552.57 molecules/10^6 β-actin
RBL2 expression (48 hours): 11571.33 molecules/10^6 β-actin
TGFBR2 expression (48 hours): 5072 molecules/10^6 β-actin
TGIF expression (48 hours): 19849.69 molecules/10^6 β-actin
TNFAIP1 expression (48 hours): 49955.6 molecules/10^6 β-actin
TNFRSF1A expression (48 hours): 21.29 molecules/10^6 β-actin
TNFSF10 expression (48 hours): 79.65 molecules/10^6 β-actin
TP53 expression (48 hours): 2821 molecules/10^6 β-actin
TRAF4 expression (48 hours): 298.28 molecules/10^6 β-actin

Reference: patent publication US20110034472A1, “Novel Compounds for Treatment of Cancer and Disorders Associated With Angiogenesis Function” (UNIVERSITY OF SOUTHERN CALIFORNIA, priority 2004, published 2011)
